{"source": "patent US4997827A", "about": "“Compositions containing 5-α-dihydro-19-norethisterone and derivatives thereof for in vivo inhibition of aromatase” (Medical Foundation of Buffalo, Inc., priority 1989, dated 1991)", "key": {"rat ovarian aromatase": {"biological_target": "T1, rat ovarian aromatase (Rattus norvegicus, UniProt P22443)", "T1 construct": "from tissue; host or cells: ovaries of BUF/N inbred female rats, 105,000 x g precipitate of the homogenate", "T1 sequence (P22443 1-508)": "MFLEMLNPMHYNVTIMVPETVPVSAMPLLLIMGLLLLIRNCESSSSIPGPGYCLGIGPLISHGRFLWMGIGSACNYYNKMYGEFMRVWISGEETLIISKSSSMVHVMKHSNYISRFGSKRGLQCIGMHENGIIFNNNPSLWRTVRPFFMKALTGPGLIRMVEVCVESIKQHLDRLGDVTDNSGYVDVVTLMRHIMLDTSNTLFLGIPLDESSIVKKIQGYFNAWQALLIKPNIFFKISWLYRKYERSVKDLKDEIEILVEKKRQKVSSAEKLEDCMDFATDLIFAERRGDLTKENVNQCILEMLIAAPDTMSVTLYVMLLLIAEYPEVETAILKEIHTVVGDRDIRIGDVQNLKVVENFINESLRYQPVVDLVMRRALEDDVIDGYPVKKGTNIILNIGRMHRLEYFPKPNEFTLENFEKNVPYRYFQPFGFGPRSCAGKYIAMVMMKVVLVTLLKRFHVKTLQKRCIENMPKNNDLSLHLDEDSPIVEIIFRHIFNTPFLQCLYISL", "experiment": "in vivo effect on rat ovarian aromatase activity (3H-water method)", "experimental": "5α-DHNET (30 mg/ml sesame oil suspension) was injected s.c. twice daily for four days at a dose of 50 mg/kg body weight/day to BUF/N inbred female rats (50-80 days old) showing regular 4-day estrus cycles starting on the estrus day. The control group received injections of sesame oil in the same manner. Both ovaries were removed 3-4 hours after the final injection. The 105,000×g precipitate fraction of the ovarian homogenate was used for the aromatase assay. Aromatase activity was determined by the ^3 H-water method (F. L. Bellino, S. S. H. Gilani, S. S. Eng, Y. Osawa and W. L. Duax, Biochemistry, 15, 4730-4736 (1976)). The sedimented ovarian enzyme preparation was homogenized in 0.1 M phosphate buffer (pH 7.5) and incubated with [1β-^3 H, 4-^14 C]androstenedione (3.18×10^5 dpm ^3 H, 1.18×10^4 dpm ^14 C, 100.2 ng), NADPH (1 mg) and BSA (5 mg) in 0.1 M phosphate buffer (pH 7.5) in a total volume of 1.5 ml for 30 min at 37° C. Trichloroacetic acid solution (0.2 ml of 10% aqueous solution) was added to stop the enzyme reaction. Activated charcoal was added to the mixture and the spun supernatant was passed through a cotton plugged disposable pipet. The filtrate was counted for simultaneous ^3 H and ^14 C in a liquid scintillation spectrophotometer. The ^3 H-water released from the 1β-^3 H labeled androgen quantitatively corresponds to estrogen formation. The results of the in vivo aromatase suppression assay with 5α-DHNET, 6β-bromoandrostenedione (6β-BRA), and 6α-bromoandrostenedione (6α-BRA) are given in FIGS. 3, 4, and 5, respectively. 5α-DHNET suppressed 67% of the ovarian aromatase, whereas 6β-bromoandrostenedione suppressed 72% and 6α-bromoandrostenedione only an insignificant 10%.\nA test of the acetate (C2) and n-butyrate (C4) on the in vivo effect on Ovarian Aromatase Activity was conducted. […] All procedures are the same as described in the above examples. […] The slightly better results obtained with the N-butyrate may be due to its higher solubility in sesame oil, indicating a higher retention in the body."}, "[1]": {"system": "human placental aromatase", "conditions": "cited from earlier work"}, "[2]": {"system": "NMU-induced breast carcinomas of BUF/N rats", "experiment": "effect on breast tumor incidence, protocol II", "format": "in vivo, rat", "experimental": "The preventive and suppressive effect of 5α-DHNET on breast carcinomas was further examined in order to ascertain that this agent is effective under general conditions rather than limited to a specifically controlled protocol. Only a single dose of NMU was given to the BUF/N rats at 50th day of age and an oophorectomy was carried our at the 6th week after the NMU injection. The 5α-DHNET group received the agent for one week starting at the 6th week at a dose of 50 mg/kg body weight/day as given in FIG. 11. Monitoring was carried out as described in Example 4. After 41 weeks of observation, the tumor incidence was 65%, 33%, and 38% for the control, 5α-DHNET, and OVX group, respectively. The average number of tumors per tumor carrying rat was 2.6, 1.5, and 1.0 for the control, 5α-DHNET, and OVX group, respectively."}, "[3]": {"conditions": "rat, in vivo"}}}
{"smiles": "C#C[C@]1(O)CC[C@H]2[C@@H]3CC[C@H]4CC(=O)CC[C@@H]4[C@H]3CC[C@@]21C", "note": "[5α-DHNET, 5α-dihydro-19-norethisterone]", "values": [{"measurement": "suppression of the ovarian aromatase activity", "setting": "rat ovarian aromatase; 50 mg/kg body weight/day s.c. twice daily for four days, 4-day cycling BUF/N rats", "result": 67, "unit": "%"}, {"measurement": "in vivo ovarian aromatase inactivation", "setting": "rat ovarian aromatase; Example 7, 50 mg/kg body weight/day, regularly cycling BUF/N rats, compared to sesame oil control", "result": 67.9, "unit": "%"}, {"measurement": "concentration for inhibition of human placental aromatase in vitro", "setting": "[1]; in vitro, for 5α-DHNET a partial inhibition", "result": 50, "unit": "µM"}, {"measurement": "in vitro aromatase inhibitory activity", "setting": "[1]; previous in vitro studies", "result": "essentially inactive"}, {"measurement": "tumor incidence", "setting": "[2]; after 41 weeks, single NMU dose, 50 mg/kg/day for one week from 6th week", "result": 33, "unit": "%"}, {"measurement": "average number of tumors per tumor carrying rat", "setting": "[2]; protocol II", "result": 1.5}, {"measurement": "body weight compared to control rats", "setting": "[3]", "result": "did not show any significant difference of body weight from the control rats"}]}
